The subject of data set [1] is uninephrectomy chronic kidney disease model in Munich Wister Fromter rats. In words: Gentamicin induced nephrotoxicity in uninephrectomy chronic kidney disease rat model, with or without RAP. The conditions noted are these: for Urinary protein: CKD pretreatment baseline 221±40; for Serum Cr: daily gentamicin 100 mg/kg intraperitoneal with RAP 40 mg/kg intravenous, p<0.01 vs without RAP. The protocol:
Rats with a Chronic Kidney Disease (CKD) background were given either saline or 40 mg/kg RAP. […] Serum creatinine, an indicator of renal function, was measured in both rat populations at day 0, 3, 4, 5, and 6.

For data set [2], the system named is fluid phase and Megalin mediated clathrin mediated endocytosis in S1 and non-S1 proximal tubule segments. Nature of the data set: Intra-vital 2-photon quantification of proximal tubule uptake of fluorescent endocytic markers after RAP or vehicle. Format: in vivo, rat. The protocol:
Rats were given either RAP or saline vehicle followed by a bolus containing a fluid phase endocytic marker (10,000 MW Cascade Blue Dextra, CB-dex) and a receptor mediated uptake marker (Texas Red Rat Serum Albumin, Rat Albumin). […] The results of this experiment are illustrated in FIG. 3. […] Ten minutes later, a bolus of Texas Red rat serum albumin (TR-RSA) and 10 kDa Cascade Blue dextran was given. […] Images collected from these studies at approximately 15, 30, and 60 minutes post initial infusion were quantified for TR-RSA and 10 kDa dextran uptake in either vehicle or RAP treated rats, in both S1 and non-S1 proximal tubule segments. Values were reported as normalized fluorescence, with the values normalized to the highest average value in the study group. […] The differences between vehicle and RAP treated were significant at all three time points studied and in both the S1 and non-S1 proximal tubule segments. […] The lower glomerular sieving coefficient of the RSA results in less RSA filtration and this a slower, protracted uptake that appears linear over time, with the S1 segment having the greatest accumulation.

For data set [3] the test system is unchanged. The description is as above. Format: in vivo, rat. This is another data set of the same source.
[4] abbreviates: RAP vs saline vehicle, 15', 30', 60' post bolus, S1 and non-S1 segments, FIG. 3.
The mark [5] stands for this setting: S1 segment, 60 minutes post initial bolus infusion, RAP 40 mg/Kg, FIG. 4B.
The mark [6] stands for this setting: normal rats, over 60 minutes, RAP 40 mg/kg intravenous.

For the substance gentamicin [reference compound], the Urinary protein in data set [1] (gentamicin without RAP) is listed as 2,512 mg/ml/100 μm wt.
Consider “RAP: 39 kD protein, molecular chaperone for LDL receptor-related proteins such as Megalin; endocytosis inhibitor; SEQ ID NO 1-3 (human, rat, mouse)”, for which the “Serum creatinine (indicator of renal function), change over time” value in data set [1] (CKD rats, RAP 40 mg/kg plus gentamicin 100 mg/kg intraperitoneal daily for five days, day 0, 3, 4, 5, 6, FIG. 1) is given as “did not exhibit the same increase in serum creatinine”. Also, the “Serum Cr” value in data set [1] (day 5) worked out at 1.4 ± 0.5 mg/dL. Further, in data set [1] (day 6), the “Serum Cr” value amounted to 1.5 ± 0.5 mg/dL. For the same substance, the 24-hour creatinine clearance in data set [1] (gentamicin with RAP, CKD pretreatment baseline 0.91=0.22 ml/min) came out at 0.49 ± 0.16 mL/min. Further, the Urinary protein in data set [1] (gentamicin with RAP) is 488 mg/ml/100 μm wt. In data set [2] (setting [4]), the “10,000 MW Cascade Blue Dextran (CB-dex) proximal tubule uptake and accumulation” value is listed as “reduction”; the “Texas Red Rat Serum Albumin proximal tubule uptake and accumulation” value is “reduction”. Also, in data set [2] (setting [5]), the “10 kDa dextran accumulation in single plane images” value was “only faint accumulation” and the “TR-RSA uptake in single plane images” value is listed as “virtually no uptake”. In addition, in data set [2] (S1 segment, RAP 40 mg/Kg, FIG. 4C), the “Reduction of 10 kDa Cascade Blue dextran uptake vs vehicle” value was “over 5 fold”. Moreover, the “RSA uptake (normalized fluorescence) compared to vehicle treated rats” value in data set [2] (about 15, 30 and 60 minutes, both S1 and non-S1 proximal tubule segments, FIG. 4E, 4F) is reported as “significantly reduced”. The “Reduction of 10 kDa Cascade Blue dextran uptake vs vehicle” value in data set [2] (non-S1 proximal tubule segments, RAP 40 mg/Kg, FIG. 4D) came out at 2 fold. The “Reversibility of the reduction of S1 proximal tubule uptake” value in data set [2] (normal rats) is given as “rapid fully reversible”. In data set [2] (setting [6]), the “Reduction of S1 proximal tubule albumin uptake” value is recorded as 80% and the “Reduction of S1 proximal tubule dextran uptake” value is 67%. The “Nature of the inhibition of endocytosis” value in data set [2] (without causing lasting effects on kidney function) was “temporary and reversible”. In data set [3] (RAP 40 mg/kg vs saline vehicle, then single bolus of Texas Red Gentamicin, S1 and non-S1 proximal tubule segments, FIG. 2), the “Texas Red Gentamicin accumulation (average fluorescence intensity)” value is given as “Decreased”. Further, the “Reduction of S1 proximal tubule gentamicin uptake” value in data set [3] (setting [6]) was found to be 62%.
